In US10442835B2, “Water-soluble rapamycin derivatives” (Zhejiang Hisun Pharmaceutical Co., Ltd., priority 2016, dated 2019):
Converted amounts (≈) assume the structure as drawn. Where two headings read alike, the source gives them in different places.

How the values were obtained:
[1] = Test for solubility in water; assay type: physicochemical; conditions: for solubility: water, thermodynamic from solid
Description: The experiments herein can measure the dissolution profile in water of the compounds according to the present invention.
To a 25 ml volumetric flask, 25 mg everolimus was added, and diluted with acetonitrile to volume. The mixture was shaken till all the solid dissolved, obtaining 1 mg/mL everolimus solution in acetonitrile.
1 mg/mL everolimus solution in acetonitrile was added to a 10 ml volumetric flask, and was diluted with acetonitrile by 2 times, 10 times, 100 times and 1000 times, so as to obtain everolimus solutions in acetonitrile with a concentration of 0.5 mg/mL, 0.1 mg/mL, 0.01 mg/mL and 0.001 mg/mL, respectively.
Each of the three mixtures was shaken till the solid in the volumetric flask stopped to dissolve. Before analyzed by HPLC, 1 mL of each solution was filtrated via a 0.22 μm filter. The solubility of the compounds was calculated from the standard curve using the peak area of the main peak obtained.
Based on the same study method, comparisons of the solubility between sirolimus/temsirolimus and the compounds modified by glutathione are carried out, respectively.

[2] = tested on: human liver cancer cell HepG2; test: In vitro activity assay, growth of HepG2 (thymidine incorporation); assay type: cell-based; conditions: 48 h
Description: (§1) The anti-tumor activity and toxicity of the compounds according to the present invention can be assayed through standard operational procedures of pharmacological experiment. The experiments carried out herein can test the inhibitory effect of the compounds according to the present invention on the growth of human liver cancer cell HepG2, lung cancer cell NCI460, prostate cancer cell DU145, prostate cancer cell PC3, and human breast cancer cell MDA-MB-435. The operational procedure used is briefly described below by taking the inhibitory activity assay against human liver cancer cell HepG2 as an example.
Human liver cancer cell HepG2 grew in the follow medium:
Preparation of the growth medium: BRL minimum essential medium with Earle Salts (500 mL), with the addition of the following agents:
(§2) The operational procedure for the assay is as follows:
(§3) 1. Cells after being trypsinized were inoculated in 96-well plates at a concentration of 10^4 cells/well, and allowed to grow in a medium with a final volume of 200 μL. The 96-well plates after inoculation are allowed to stand for 24 hours at 37° C., in order to allow the cells to adhere to the surface of the wells.
(§4) 2. The medium was removed by carefully pipetting without disturbing the cell monolayer. 200 μL Fresh medium was added into each well. It is arranged to make it possible to collect samples from enough wells to run the experiments in triplicate.
(§5) 3. The compounds to be tested according to the present invention were dissolved into 10 μL phosphate buffered solution (PBS) and incubated for 48 h at 37° C.
(§6) 4. In the last 6 h of incubation, cells in each well of the 96-well plates were labeled by 1 microcurie T thymidine (New England Nuclear thymidine), by adding 10 μL PBS containing 1 microcurie T thymidine (which was added into the PBS on the day of collecting the samples for test). The 96-well plates were then returned to the incubator and incubated for the last 6 h.
(§7) 5. Without disturbing the cell monolayer, the radioactive medium was removed by pipetting. Then 50 μL of BRL 10×trypsin was added to each well, followed by incubation at 37° C. for 10 minutes or until the cell monolayer was detached from the bottom (or the wall) of each well. Samples were collected on glass-fiber diskettes using a Skatron 96-well cell harvester. Cells depositing on the glass-fiber diskettes were counted in a Wallac Betaplate counter.

[3] = tested on: lung cancer cell NCI460; test: In vitro activity assay, growth of NCI460; assay type: cell-based; conditions: NCI-460, 48 h
Description: as §1, §2, §3, §4, §5, §6, §7

[4] = tested on: prostate cancer cell DU145; test: In vitro activity assay, growth of DU145; assay type: cell-based; conditions: Homo sapiens; DU-145; 48 h
Description: as §1, §2, §3, §4, §5, §6, §7

[5] = tested on: prostate cancer cell PC3; test: In vitro activity assay, growth of PC3; assay type: cell-based; conditions: 48 h
Description: as §1, §2, §3, §4, §5, §6, §7

[6] = tested on: human breast cancer cell MDA-MB-435; test: In vitro activity assay, growth of MDA-MB-435; assay type: cell-based; conditions: 48 h
Description: as §1, §2, §3, §4, §5, §6, §7

Structure (SMILES) | increase of solubility in water as compared with sirolimus [1] | solubility [1] | IC50 [2] | IC50 [3] | IC50 [4] | IC50 [5] | IC50 [6] | increase of solubility in water as compared with temsirolimus [1] | solubility ([1]; pure water, Table 2, compounds I-5, I-6, I-7 converted to temsirolimus, read-out: Solubility in water)
CO[C@H]1C[C@@H]2CC[C@@H](C)[C@@](O)(O2)C(=O)C(=O)N2CCCC[C@H]2C(=O)OC([C@H](C)C[C@@H]2CC[C@@H](OC(=O)CSC[C@H](NC(=O)CC[C@H](N)C(=O)O)C(=O)NCC(=O)O)[C@H](OC)C2)CC(=O)[C@H](C)/C=C(\C)[C@@H](O)[C@@H](OC)C(=O)[C@H](C)C[C@@H](C)\C=C/C=C/C=C/1C (stereo partly shown) [Compound I-3] | at least 470 times | 470 µg/mL (≈ 373 µM) | 35.188 ± 0.007 µM | 82.328 ± 0.011 µM | 62.511 ± 0.01 µM | 31.396 ± 0.008 µM | 63.633 ± 0.015 µM |  | 
CO[C@H]1C[C@@H]2CC[C@@H](C)[C@@](O)(O2)C(=O)C(=O)N2CCCC[C@H]2C(=O)OC([C@H](C)C[C@@H]2CC[C@@H](OC(=O)CSC[C@H](NC(=O)CC[C@H](N)C(=O)O)C(=O)NCC(=O)O)[C@H](OC)C2)CC(=O)[C@H](C)/C=C(\C)[C@@H](OC(=O)CSC[C@H](NC(=O)CC[C@H](N)C(=O)O)C(=O)NCC(=O)O)[C@@H](OC)C(=O)[C@H](C)C[C@@H](C)\C=C/C=C/C=C/1C (stereo partly shown) [Compound I-4] | ≥ 610 times | 610 µg/mL (≈ 379 µM) | 73.402 ± 0.007 µM | 122.8 ± 0.017 µM | 93.277 ± 0.011 µM | 51.413 ± 0.005 µM | 73.283 ± 0.012 µM |  | 
CO[C@H]1C[C@@H]2CC[C@@H](C)[C@@](O)(O2)C(=O)C(=O)N2CCCC[C@H]2C(=O)OC([C@H](C)C[C@@H]2CC[C@@H](OC(=O)C(C)(CO)COC(=O)CSC[C@H](NC(=O)CC[C@H](N)C(=O)O)C(=O)NCC(=O)O)[C@H](OC)C2)CC(=O)[C@H](C)/C=C(\C)[C@@H](O)[C@@H](OC)C(=O)[C@H](C)C[C@@H](C)\C=C/C=C/C=C/1C (stereo partly shown) [Compound I-5] |  | 580 µg/mL (≈ 421 µM) | 50.213 ± 0.01 µM | 80.53 ± 0.013 µM | 60.813 ± 0.011 µM | 38.396 ± 0.008 µM | 70.761 ± 0.009 µM | at least 580 times | 
CO[C@H]1C[C@@H]2CC[C@@H](C)[C@@](O)(O2)C(=O)C(=O)N2CCCC[C@H]2C(=O)OC([C@H](C)C[C@@H]2CC[C@@H](OC(=O)C(C)(COC(=O)CSC[C@H](NC(=O)CC[C@H](N)C(=O)O)C(=O)NCC(=O)O)COC(=O)CSC[C@H](NC(=O)CC[C@H](N)C(=O)O)C(=O)NCC(=O)O)[C@H](OC)C2)CC(=O)[C@H](C)/C=C(\C)[C@@H](OC(=O)CSC[C@H](NC(=O)CC[C@H](N)C(=O)O)C(=O)NCC(=O)O)[C@@H](OC)C(=O)[C@H](C)C[C@@H](C)\C=C/C=C/C=C/1C (stereo partly shown) [Compound I-7] |  | 830 µg/mL (≈ 401 µM) | 76.703 ± 0.012 µM | 131.26 ± 0.01 µM | 82.51 ± 0.015 µM | 60.492 ± 0.01 µM | 81.31 ± 0.008 µM | ≥ 830 times | 
CO[C@H]1C[C@@H]2CC[C@@H](C)[C@@](O)(O2)C(=O)C(=O)N2CCCC[C@H]2C(=O)O[C@H]([C@H](C)C[C@@H]2CC[C@@H](O)[C@H](OC)C2)CC(=O)[C@H](C)/C=C(\C)[C@@H](O)[C@@H](OC)C(=O)[C@H](C)C[C@H](C)/C=C/C=C/C=C/1C [Sirolimus, reference compound] |  | < 1 µg/mL | 66.254 ± 0.007 µM | 101.36 ± 0.013 µM | 68.52 ± 0.009 µM | 42.371 ± 0.009 µM | 68.57 ± 0.007 µM |  | 
CO[C@H]1C[C@@H]2CC[C@@H](C)[C@@](O)(O2)C(=O)C(=O)N2CCCC[C@H]2C(=O)O[C@H]([C@H](C)C[C@@H]2CC[C@@H](OC(=O)C(C)(CO)CO)[C@H](OC)C2)CC(=O)[C@H](C)/C=C(\C)[C@@H](O)[C@@H](OC)C(=O)[C@H](C)C[C@H](C)/C=C/C=C/C=C/1C [Temsirolimus, reference compound] |  |  | 60.337 ± 0.01 µM | 113.25 ± 0.011 µM | 65.361 ± 0.015 µM | 47.319 ± 0.005 µM | 77.31 ± 0.005 µM |  | ~1 µg/mL (≈ 0.971 µM)
